According to US20190119282A1, “IMIDAZOPYRIDAZINES USEFUL AS INHIBITORS OF THE PAR-2 SIGNALING PATHWAY” (Vertex Pharmaceuticals Incorporated, priority 2013, published 2019):

How the values were obtained:
[1] = system: Thrombin-stimulated Ca2+ response in HT-29 cells; experiment: Ca FLIPR TETRA assay, ANTAGONIST mode, stimulation with 1 U/mL Thrombin; format: cell-based, human; details: Homo sapiens, HT-29 cells
Outline: (§1)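 Inhibition of activator-evoked Ca2+ flux was recorded on FLIPR Tetra in HT-29 cells after 30 min compound exposure at r.t. A prior read checked whether compounds alone triggered Ca2+ release.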

[2] = target: T1, PAR2 (HT-29 cells, SLIGKV activation) (Homo sapiens, UniProt P55085); experiment: Ca FLIPR TETRA assay, ANTAGONIST mode, stimulation with 8 μM SLIGKV; format: cell-based; details: HT-29 cells
T1 construct: host or cells: HT-29 cells
T1 sequence (P55085 26-397): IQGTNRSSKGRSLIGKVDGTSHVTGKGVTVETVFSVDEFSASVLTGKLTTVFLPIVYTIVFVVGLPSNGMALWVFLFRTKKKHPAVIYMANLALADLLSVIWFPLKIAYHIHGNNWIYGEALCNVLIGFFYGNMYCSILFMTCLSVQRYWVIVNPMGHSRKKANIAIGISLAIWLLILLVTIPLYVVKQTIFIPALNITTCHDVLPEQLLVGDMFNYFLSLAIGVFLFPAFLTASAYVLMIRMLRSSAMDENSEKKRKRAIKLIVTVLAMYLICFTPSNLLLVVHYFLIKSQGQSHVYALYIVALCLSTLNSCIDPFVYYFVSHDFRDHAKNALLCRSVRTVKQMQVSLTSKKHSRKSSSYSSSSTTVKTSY
Outline: as §1

[3] = target: T2, PAR2 (HT-29 cells, trypsin activation) (Homo sapiens, UniProt P55085); experiment: Ca FLIPR TETRA assay, ANTAGONIST mode, stimulation with 3.1 U/mL trypsin; format: cell-based; details: HT-29 cells
T2 construct: host or cells: HT-29 cells
T2 sequence (P55085 26-397): T1 sequence (P55085 26-397)
Outline: as §1

[4] = system: UTP-stimulated Ca2+ response in HT-29 cells; experiment: Ca FLIPR TETRA assay, ANTAGONIST mode, stimulation with 0.6 μM UTP; format: cell-based, human; details: Homo sapiens, HT-29 cells
Outline: as §1

[5] = stimulation with 1 U/mL Thrombin
[6] = stimulation with 3.1 U/mL trypsin
[7] = antagonist mode, stimulation with 1 U/mL Thrombin
[8] = antagonist mode, stimulation with 8 μM SLIGKV
[9] = antagonist mode, stimulation with 3.1 U/mL trypsin
[10] = antagonist mode, stimulation with 0.6 μM UTP

| SMILES | IC50 [1, 5] [nM] | IC50 ([2]; stimulation with 8 μM SLIGKV) [nM] | IC50 [3, 6] [nM] | IC50 ([4]; stimulation with 0.6 μM UTP) [nM] | IC50 [1, 7] [nM] | IC50 [2, 8] [nM] | IC50 [3, 9] [nM] | IC50 [4, 10] [nM] | other results |
| --- | --- | --- | --- | --- | --- | --- | --- | --- | --- |
| C[C@H]1CN(C(=O)c2cn3nc(-c4ccc(F)cc4)cc(C(F)(F)F)c3n2)CCN1C(=O)[C@@H]1CCCO1 [Compound I-85] | 49000 | 1600 | 10000 | 40000 |  |  |  |  |  |
| CC(C)(C)c1cc(-c2ccc(Cl)cc2)nn2cc(C(=O)N3CCN(C(=O)[C@H]4C[C@H](C(=O)O)C4)CC3(C)C)nc12 [Compound I-570] |  |  |  |  |  |  |  |  | IC50 ([1]; antagonist mode, 1 U/mL Thrombin): > 1000 nM; IC50 ([2]; antagonist mode, 8 μM SLIGKV): 1.6 nM; IC50 ([3]; antagonist mode, 3.1 U/mL trypsin): 2.2 nM; IC50 ([4]; antagonist mode, 0.6 μM UTP): > 1000 nM |
| CC(C)c1cc(-c2ccc(F)cc2)nn2cc(C(=O)N3CCN(C(=O)CCn4cccn4)[C@@H](C)C3)nc12 [Compound I-135] | 16000 | 22 | 220 | 17000 |  |  |  |  |  |
| CC(C)c1cc(-c2ccc(F)cc2)nn2cc(C(=O)N3CCN(C(=O)CC4CCCC4)[C@@H](C)C3)nc12 [Compound I-121] | 9200 | 4 | 7 | > 500 |  |  |  |  |  |
| CC(C)c1cc(-c2ccc(F)cc2)nn2cc(C(=O)N3CCN(C(=O)CC4CCCCC4)[C@@H](C)C3)nc12 [Compound I-128] | 30000 | 2 | 2 | 31000 |  |  |  |  |  |
| Cc1ccc(-c2cc(C(C)C)c3nc(C(=O)N4CCN(C(=O)c5nc[nH]n5)CC4(C)C)cn3n2)cc1F [Compound I-336] |  |  |  |  | > 1000 | 5 | 2.8 | > 1000 |  |
| Cc1cc(F)ccc1-c1cc(C(C)(C)C)c2nc(C(=O)N3CCNC(=O)C3(C)C)cn2n1 [Compound I-439] |  |  |  |  | > 1000 | 81 | 125 | > 1000 |  |
| O=C(c1cn2nc(-c3ccc(F)cc3)cc(C(F)(F)F)c2n1)N1CCCCC1CO (centres unmarked) [Compound I-47] | 16000 | 3100 | 7500 | 32000 |  |  |  |  |  |
| CC(C)c1cc(C2CCOCC2)nn2cc(C(=O)N3CCN(C(=O)C4(O)CCC4)CC3(C)C)nc12 [Compound I-45, [4-(1-hydroxycyclobutanecarbonyl)-2,2-dimethyl-piperazin-1-yl]-(8-isopropyl-6-tetrahydropyran-4-yl-imidazo[1,2-b]pyridazin-2-yl)methanone] | > 50000 | 20000 | > 50000 | > 50000 |  |  |  |  |  |
| CC1CN(C(=O)c2cn3nc(-c4ccc(F)cc4)cc(C(F)(F)F)c3n2)CCC1O (centres unmarked) [Compound I-68] | 19000 | 5900 | 13000 | 29000 |  |  |  |  |  |
| CC(C)c1cc(-c2ccc(F)cc2)nn2cc(C(=O)N3CCN(C(=O)C(C)(C)O)[C@@H](C)C3)nc12 [Compound I-112] | 38000 | 2400 | 1000 | 35000 |  |  |  |  |  |
| CC(C(=O)NC1CC1)N1CCN(C(=O)c2cn3nc(-c4ccc(F)cc4)cc(C(F)(F)F)c3n2)CC1 (centres unmarked) [Compound I-55] | > 50000 | 950 | 3100 | > 50000 |  |  |  |  |  |
| Cc1n[nH]c(C(=O)N2CCN(C(=O)c3cn4nc(-c5ccc(C)c(F)c5)cc(C(C)C)c4n3)C(C)(C)C2)n1 [Compound I-339] |  |  |  |  | > 1000 | 1.9 | 1.9 | > 1000 |  |
| Cc1ccc(-c2cc(C(C)C)c3nc(C(=O)N4CCN(C(=O)c5ccn[nH]5)CC4(C)C)cn3n2)cc1F [Compound I-374] |  |  |  |  | > 1000 | 1.4 | 1.6 | > 1000 |  |

Further lines, with some results ahead:

| IC50 [1, 5] [nM] | IC50 ([2]; stimulation with 8 μM SLIGKV) [nM] | IC50 [3, 6] [nM] | IC50 ([4]; stimulation with 0.6 μM UTP) [nM] | IC50 [1, 7] [nM] | IC50 [2, 8] [nM] | IC50 [3, 9] [nM] | IC50 [4, 10] [nM] | SMILES | other results |
| --- | --- | --- | --- | --- | --- | --- | --- | --- | --- |
| > 50000 | 19 | 29 | 64000 |  |  |  |  | CC1(C)CN(C(=O)C2(O)CCC2)CCN1C(=O)c1cn2nc(-c3ccc(F)cc3)cc(C3CC3)c2n1 [Compound I-21, [8-cyclopropyl-6-(4-fluorophenyl)imidazo[1,2-b]pyridazin-2-yl]-[4-(1-hydroxycyclobutanecarbonyl)-2,2-dimethyl-piperazin-1-yl]methanone] |  |
|  |  |  |  | > 1000 | 1.5 | 1.8 | > 1000 | COC(=O)C1CC(C(=O)N2CCN(C(=O)c3cn4nc(-c5ccc(Cl)cc5)cc(C(C)C)c4n3)C(C)(C)C2)C1 (centres unmarked) [Compound I-544] |  |
| > 5000 | 0.5 | 0.8 | > 5000 |  |  |  |  | C[C@H]1CN(C(=O)c2cn3nc(-c4ccc(F)cc4)cc(C4CC4)c3n2)CCN1C(=O)[C@H](O)CC(C)(C)C [Compound I-14, (2R)-1-[(2S)-4-[8-Cylopropyl-6-(4-fluorophenyl)imidazo[1,2-b]pyridazine-2-carbonyl]-2-methyl-piperazin-1-yl]-2-hydroxy-4,4-dimethyl-pentan-1-one] |  |
|  |  |  |  | > 1000 | 1.6 | 1.5 | > 1000 | Cc1ccc(-c2cc(C(C)(C)C)c3nc(C(=O)N4CCN(C(=O)c5nnc(C)o5)CC4(C)C)cn3n2)cc1 [Compound I-393] |  |
|  |  |  |  | 4150 | 1.7 | 2.1 | 2180 | CC(C)(C)c1cc(-c2ccc(F)c(Cl)c2)nn2cc(C(=O)N3CCN(C(=O)C4CC(C(=O)O)C4)CC3(C)C)nc12 (centres unmarked) [Compound I-486] |  |
|  |  |  |  | > 1000 | 12 | 18.2 | > 1000 | CC(C)c1cc(-c2ccc(C(F)(F)F)cc2)nn2cc(C(=O)N3CCN(C(=O)C(C)(C)O)CC3(C)C)nc12 [Compound I-215] |  |
|  |  |  |  | > 1000 | 1.7 | 1.8 | > 1000 | Cc1ccc(-c2cc(C(C)(C)C)c3nc(C(=O)N4CCN(C(=O)c5ncccn5)CC4(C)C)cn3n2)cc1F [Compound I-426] |  |
|  |  |  |  | > 1000 | 0.4 | 0.9 | > 1000 | CC(C)(C)c1cc(-c2ccc(Cl)cc2)nn2cc(C(=O)N3CCN(C(=O)c4ncccn4)CC3(C)C)nc12 [Compound I-445] |  |
|  |  |  |  | > 1000 | 1.3 | 1.3 | > 1000 | Cc1ncc(C(=O)N2CCN(C(=O)c3cn4nc(-c5ccc(F)cc5)cc(C(C)(C)C)c4n3)C(C)(C)C2)[nH]1 [Compound I-312] |  |
|  |  |  |  | 1500 | 27.7 | 38.7 | 1800 | CC(C)[C@@H](O)C(=O)N1CCN(C(=O)c2cn3nc(-c4ccc(F)cc4)cc(N4C[C@@H](C)O[C@@H](C)C4)c3n2)C(C)(C)C1 [Compound I-186] |  |
|  |  |  |  | > 1000 | 27.5 | 57.5 | > 1000 | CC(C)c1cc(-c2ccc(Cl)cc2)nn2cc(C(=O)N3CCN(C(=O)[C@H]4CC[C@H](C(=O)O)CC4)CC3(C)C)nc12 [Compound I-549] |  |
|  |  |  |  | > 1000 | 1.5 | 2.5 | > 1000 | CC1(C)CN(C(=O)C2CC(O)(C(F)(F)F)C2)CCN1C(=O)c1cn2nc(-c3ccc(F)cc3)cc(C(F)(F)F)c2n1 (centres unmarked) [Compound I-272] |  |
|  |  |  |  | > 1000 | 0.4 | 0.4 | > 1000 | CC(C)c1cc(-c2ccc(C(F)(F)F)c(F)c2)nn2cc(C(=O)N3CCN(C(=O)[C@H]4C[C@](O)(C(F)(F)F)C4)CC3(C)C)nc12 [Compound I-276] |  |
|  |  |  |  | 540 | 2.8 | 4.3 | > 1000 | Cc1cccc(-c2cc(C(C)(C)C)c3nc(C(=O)N4CCN(C(=O)c5nc(C)n[nH]5)CC4(C)C)cn3n2)c1 [Compound I-408] |  |
|  |  |  |  | > 1000 | 0.9 | 2 | > 1000 | Cc1ncc(C(=O)N2CCN(C(=O)c3cn4nc(-c5ccc(F)c(Cl)c5)cc(C(C)(C)C)c4n3)C(C)(C)C2)[nH]1 [Compound I-467] |  |
